According to patent publication EP4692079A1, “CYP11A1 INHIBITOR AND USE THEREOF” (priority 2023, dated 2024):
Read-outs that look alike come from different tables or passages of the source.

Key:
[1] = test system: testosterone level in NCI-H295R cells; assay: cells; type: cell-based; settings: for inhibition at 0.1 µM / inhibition at 1 µM / IC50: Homo sapiens, NCI-H295R, 72 h; for IC50: read-out: Testosterone level in H295R (Elisa) IC50 nM
Protocol: The purpose of the experimental study was intended to detect the testosterone level in the NCI-H295R cells by adopting the Enzyme linked immunosorbent assay (ELISA), so as to evaluate the inhibitory effects of the compounds on the testosterone level in the NCI-H295R cells.
The H295R cells were purchased from ATCC, the cell complete medium contained DMEM: F12+ 10% FBS +0.00625 mg/ml insulin +0.00625 mg/ml transferrin+6.25 ng/ml selenium +1.25 mg/ml BSA+0.00535 mg/ml linoleic acid, and the cells were cultured in a 37°C, 5% CO2 incubator. The cells in the exponential growth phase were collected, and cultured in a cytokine-free medium (phenol red 1640-free +1% PS+10% css FBS+1.25 mg/ml BSA +0.00625 mg/ml insulin + 0.00625 mg/ml transferrin+6.25 ng/ml selenium+0.00535 mg/ml linoleic acid) for three days. The cells in the exponential growth phase were collected on the third day. The cell suspension was adjusted with a cytokine-free medium to a corresponding concentration and plated at 60000 cells/well, with the volume being 90 µL/well. Subsequently, 10 µL of the compounds at different concentrations was added and the plate was incubated in a CO2 incubator for three days. After the incubation was completed, according to the operation instructions for testosterone Elisa kit (Beyotime, PT872), 50 µL of the cell culture supernatant was collected from each well and centrifuged at 500 g for 5 min at room temperature and then the resulting supernatant was collected. The samples were added to the corresponding wells at 25 µl/well, and then formulated horseradish peroxidase labelled testosterone was added at 75 µl/well. The mixture was fully mixed for 10 seconds. The reaction wells were sealed with a plate-sealing film (white) and the mixture was incubated at room temperature in the dark for 120 min. The plate was washed three times with a volume of 300 µl per well, and then placed onto thick absorbent paper and dried. Chromogenic reagent TMB solution was added at 100 µl/well. The reaction wells were sealed with a plate-sealing film (white) and the mixture was incubated at room temperature in the dark for 15-20 min. Subsequently, a termination solution was added at 50 µl/well, and after the mixture was fully mixed, the absorbance value OD450 was immediately measured. The absorbance readings were processed using Graphpad Prim 8.0 software and S-shaped concentration curves were plotted and the IC50 values were calculated using a four-parameter non-linear regression model.

[2] = Pharmacokinetic test in rats; type: in vivo; settings: rat, male SD rats, plasma; for Vd: read-out: Vdss
Protocol: 3.1 Experimental animals: Male SD rats (about 220 g, 6-8 weeks old, 6 rats/compound) were purchased from Chengdu Dossy Experimental Animals Co., Ltd.
3.2 Experimental design: On the day of the experiment, the SD rats were randomly grouped by body weight. […] Table 4 Administration information
Before and after the administration, 0.1 ml of blood was taken from the orbit of the animals under isoflurane anaesthesia and placed in an EDTAK2 centrifuge tube. The blood was centrifuged at 5000 rpm and 4°C for 10 min to collect plasma. […] Before analysis and detection, all samples were stored at -80°C. Table 5 Pharmacokinetic parameters of test compounds in plasma of rats

[3] = read-out: Testosterone level in H295R (Elisa) inh.% 100 nM, 100 nM compound, NCI-H295R cells, three days incubation
[4] = read-out: Testosterone level in H295R (Elisa) inh.% 1000 nM, 1000 nM compound, NCI-H295R cells, three days incubation
[5] = po, intragastric administration (10 mg/kg)
[6] = intravenous administration (2.5 mg/kg)
[7] = read-out: Testosterone level in H295R (Elisa) inh.% 100 nM
[8] = read-out: Testosterone level in H295R (Elisa) inh.% 1000 nM

Row | Compound | inhibition at 0.1 µM [1, 3] | inhibition at 1 µM [1, 4] | also measured
1 | O=C(N[C@H]1CC[C@H](C(=O)Nc2coc(CN3Cc4ccc(C(F)(F)F)cc4C3)cc2=O)CC1)C1CC1 [Compound 119] | 60% | 81% | –
2 | O=C(CC1CC1)N1CCC(/C=C/c2coc(CN3Cc4ccc(C(F)(F)F)cc4C3)cc2=O)CC1 [Compound 52] | – | – | AUC(0-t) [2, 5]: 10500 ng·h/mL; half-life [2, 5]: 133 min; AUC(0-t) [2, 6]: 3300 ng·h/mL; clearance [2, 6]: 12.3 mL/min/kg; half-life [2, 6]: 82.2 min; Vd [2, 6]: 1.39 L/kg; IC50 [1]: 98.2 nM; inhibition at 0.1 µM [1, 7]: 55.8%; inhibition at 1 µM [1, 8]: 74.9%
3 | CS(=O)(=O)N1CC(OC(=O)N2CC3C(COc4coc(CN5Cc6ccc(C(F)(F)F)cc6C5)cc4=O)C3C2)C1 (stereo not drawn) [Compound 77] | 71% | 84% | –
4 | O=C(N[C@H]1CC[C@H](CCc2coc(CN3Cc4ccc(C(F)(F)F)cc4C3)cc2=O)CC1)[C@H]1CC1(F)F [Compound 113] | 76% | 77% | –
5 | CS(=O)(=O)N1CCC2(CC1)CC2C(=O)N1CCC(COc2coc(CN3Cc4ccc(C(F)(F)F)cc4C3)cc2=O)CC1 (single isomer, unassigned) [Compound 70] | – | – | Testosterone level in H295R (Elisa) inh.% 100 nM ([1]; 100 nM compound, NCI-H295R cells, three days incubation): 60%; Testosterone level in H295R (Elisa) inh.% 1000 nM ([1]; 1000 nM compound, NCI-H295R cells, three days incubation): 83%
6 | O=C(N[C@H]1CC[C@H](COc2coc(CN3Cc4ccc(C(F)(F)F)cc4C3)cc2=O)CC1)[C@H]1CC1(F)F [Compound 65] | 80% | 78% | –
7 | C/C(=C\[C@H]1CC[C@H](NC(=O)c2cnn(C)c2)CC1)c1coc(CN2Cc3ccc(C(F)(F)F)cc3C2)cc1=O [Compound 107] | – | – | AUC(0-t) [2, 5]: 22500 ng·h/mL; half-life [2, 5]: 249 min; AUC(0-t) [2, 6]: 6030 ng·h/mL; clearance [2, 6]: 6.96 mL/min/kg; half-life [2, 6]: 203 min; Vd [2, 6]: 1.55 L/kg; inhibition at 0.1 µM [1, 7]: 60%; inhibition at 1 µM [1, 8]: 78%
8 | O=C(N[C@H]1CC[C@H](COc2coc(CN3Cc4ccc(C(F)(F)F)cc4C3)cc2=O)CC1)[C@@H]1CC1(F)F [Compound 66] | 78% | 82% | –
9 | C#Cc1ccc2c(c1)CN(Cc1cc(=O)c(OCC3CCN(C(=O)OC4COC4)CC3)co1)C2 [Compound 6] | 79.5% | 90.8% | –
10 | O=c1cc(CN2Cc3ccc(C(F)(F)F)cc3C2)occ1/C=C/[C@H]1CC[C@H](NS(=O)(=O)CC2CC2)CC1 [Compound 62] | 67% | 79% | –
11 | O=C(N[C@H]1CC[C@H](COc2coc(CN3Cc4ccc(OC5CC5)cc4C3)cc2=O)CC1)C1CC1 [Compound 34] | – | – | IC50 [1]: 122 nM
12 | CS(=O)(=O)N1CCC2(CC1)CC2C(=O)N1CCC(COc2coc(CN3Cc4ccc(C(F)(F)F)cc4C3)cc2=O)CC1 (single isomer, unassigned) [Compound 69] | 62% | 76% | –
13 | CS(=O)(=O)N[C@H]1C[C@H](C(=O)N2CCC(COc3coc(CN4Cc5ccc(C(F)(F)F)cc5C4)cc3=O)CC2)C1 [Compound 72] | 58% | 68% | –
14 | O=C(OC1CC1)N1CCC(COc2coc(CN3Cc4ccc(OC5CCC5)cc4C3)cc2=O)CC1 [Compound 49] | 67.3% | 75.2% | –
15 | CS(=O)(=O)N1CC(OC(=O)N2CCC(COc3coc(CN4Cc5ccc(OC6CC6)cc5C4)cc3=O)CC2)C1 [Compound 25] | 56% | 77% | –
16 | O=C(CC1CC1)N1CCC(/C=C/c2coc(CN3Cc4ccc(C5CC5)cc4C3)cc2=O)CC1 [Compound 16] | 55% | 79.6% | IC50 [1]: 98.3 nM
17 | O=C(OC1CC1)N1CC(/C=C/c2coc(CN3Cc4ccc(C(F)(F)F)cc4C3)cc2=O)C1 [Compound 53] | 61% | 67.3% | –
18 | O=C(CC(F)(F)F)N[C@H]1CC[C@H](/C=C/c2coc(CN3Cc4ccc(C(F)(F)F)cc4C3)cc2=O)CC1 [Compound 102] | 79% | 82% | –

Row | Compound | inhibition at 0.1 µM [1, 3] | inhibition at 1 µM [1, 4] | also measured
19 | O=c1cc(CN2Cc3ccc(C(F)(F)F)cc3C2)occ1OC[C@H]1CC[C@H](NS(=O)(=O)c2ccsc2)CC1 [Compound 68] | 81% | 86% | –
20 | CC(OC(=O)N1CCC(COc2coc(CN3Cc4ccc(C(F)(F)F)cc4C3)cc2=O)CC1)C(F)(F)F (single isomer, unassigned) [Compound 56] | 53.6% | 79.3% | –
21 | C#CCCS(=O)(=O)N1CCC(COc2coc(CN3Cc4ccc(C(F)(F)F)cc4C3)cc2=O)CC1 [Compound 12] | 85.6% | 83.4% | –
22 | Cn1ncc(C(=O)N[C@H]2CC[C@H](/C=C/c3coc(CN4Cc5ccc(C(F)(F)F)cc5C4)cc3=O)CC2)c1F [Compound 106] | 69% | 93% | –
23 | O=C(OC1CC1)N1CCC(COc2coc(CN3Cc4ccc(C(F)(F)F)cc4C3)cc2=O)CC1 [Compound 32] | 76.1% | 64.3% | IC50 [1]: 117 nM
24 | CS(=O)(=O)N1CC(OC(=O)N2CCC(/C=C/c3coc(CN4Cc5ccc(C(F)(F)F)cc5C4)cc3=O)CC2)C1 [Compound 26] | 61% | 78% | –
25 | O=C(N[C@H]1CC[C@H](CCc2coc(CN3Cc4ccc(C(F)(F)F)cc4C3)cc2=O)CC1)[C@@H]1CC1(F)F [Compound 112] | 74% | 78% | –
26 | O=C(C1CC(F)(F)C1)N1CCC(COc2coc(CN3Cc4ccc(C(F)(F)F)cc4C3)cc2=O)CC1 [Compound 73] | 83% | 87% | –
27 | CC(F)(F)C(=O)N[C@H]1CC[C@H](/C=C/c2coc(CN3Cc4ccc(C(F)(F)F)cc4C3)cc2=O)CC1 [Compound 108] | 75% | 84% | –
28 | O=c1cc(CN2Cc3ccc(C(F)(F)F)cc3C2)occ1OC[C@H]1CC[C@@H](NS(=O)(=O)CC2CC2)CC1 [Compound 10] | 63% | 79.7% | –
29 | O=C(O[C@H]1CCOC1)N1CCC(/C=C/c2coc(CN3Cc4ccc(OC5CC5)cc4C3)cc2=O)CC1 [Compound 48] | 72.4% | 78.5% | –
30 | Cc1nc(C(=O)N[C@H]2CC[C@H](COc3coc(CN4Cc5ccc(OC6CC6)cc5C4)cc3=O)CC2)cs1 [Compound 47] | 72.2% | 69.3% | –
31 | CC1(NC2CCC(/C=C/c3coc(CN4Cc5ccc(C(F)(F)F)cc5C4)cc3=O)CC2)COC1 (single isomer, unassigned) [Compound 122] | 63% | 82% | –
32 | O=C(N[C@H]1CC[C@@H](COc2coc(CN3Cc4ccc(C(F)(F)F)cc4C3)cc2=O)CC1)C1CC1(F)F (stereo partly drawn) [Compound 55] | 63% | 72.7% | –
33 | CS(=O)(=O)N1CC(OC(=O)N2CCC(COc3coc(CN4Cc5ccc(S(F)(F)(F)(F)F)cc5C4)cc3=O)CC2)C1 [Compound 19] | 64.8% | 78.3% | –
34 | CS(=O)(=O)N1CC(OC(=O)N2CC(COc3coc(CN4Cc5ccc(C(F)(F)F)cc5C4)cc3=O)C2)C1 [Compound 60] | 57.7% | 78.5% | –
35 | CS(=O)(=O)N1CCC2(CC1)CC(C(=O)N1CCC(COc3coc(CN4Cc5ccc(C(F)(F)F)cc5C4)cc3=O)CC1)C2 [Compound 75] | 69% | 78% | –
36 | O=C(OC1CC1)N1CCC(/C=C/c2coc(CN3Cc4ccc(C(F)(F)F)cc4C3)cc2=O)CC1 [Compound 31] | – | – | AUC(0-t) [2, 5]: 13400 ng·h/mL; half-life [2, 5]: 339 min; AUC(0-t) [2, 6]: 4270 ng·h/mL; clearance [2, 6]: 9.48 mL/min/kg; half-life [2, 6]: 310 min; Vd [2, 6]: 3.41 L/kg
